Source: patent US10722530B2, “Methods of diagnosing and treating cancer” (CASE WESTERN RESERVE UNIVERSITY, priority 2016, dated 2020)

What was measured:
[1] = tested on: HEC1A endometrial cancer cells; experiment: Colony survival assay, shSCR and shUDG cells; format: cell-based, human
Protocol: UDG knockdown was performed via shRNA transduction with validated clone from Sigma-Aldrich. The ID of UDG shRNA clone is NM_003362.2-656s21c1. A non-targeted scramble control shRNA clone (Sigma-Aldrich) was also used. Transfection of shRNA clones was performed according to manufacturer's specifications from Lipofectamine 2000 (Invitrogen). Lentiviral particles were produced via HEK293 cells, and targeted cells were infected and selected with puromycin. The stable UDG knockdown levels were verified for q-PCR and western blot analysis.
DLD1 (200 cells/well) or HEC1A (300 cells/well) cells were plated in 6-well culture dishes and allowed to adhere for 16 h. Cells were treated with drug for 24 h, gently washed twice with 1×PBS, and incubated with fresh media for at least 10 days to allow individual colonies to form. Colonies were stained with methylene blue, and only colonies containing ≥50 cells were counted. The percentage of survival was determined relative to untreated control averaged over 3 independent experiments.

DLD1 cells = experiment: DNA fiber assay (replication fork progression); format: cell-based, human; conditions: 100 nM 5-FdU 24 h; for reduction of mean fiber length: vs untreated
Protocol: DNA fiber analysis was performed as described by Han et al. (J. Biol. (2015) 290:12370-8). Cells treated with 100 nM 5-FdU for 24 h were pulse-labeled with 100 μM chlorodeoxyuridine (CIdU) for 20 minutes, washed with PBS, and 25 μM Iododeoxyuridine (IdU) for 20 minutes. Cells were collected in PBS, and 2.5 μL of cell suspension was dropped on glass slide. 7.5 μL of lysis buffer (0.5% SDS, 200 mM Tris-HCl pH 7.4, 50 mM EDTA) was dropped on the cell suspension and lysis for 10 minutes. Slides were then tilted at 15° to spread the suspension and placed horizontally to allow air-dry. After drying, slides were fixed in 3:1 methanol:acetic acid for 15 minutes, washed with water, and placed at −20° C. overnight. Slides were then treated with 2.5 M HCl for 1 h, washed with PBS containing 0.1% Tween-20, washed twice with PBS, blocked in PBS containing 5% BSA and 0.1% Tween 20 for 20 minutes, and rinsed with PBS three times. After washing, 100 μL primary antibodies: mouse anti-BrdU/IdU (Becton Dickinson, 1:100) and rat anti-BrdU/CIdU (AbD Serotec, 1:400) diluted in PBS containing 5% BSA and 0.1% were added to incubate in a humid chamber for 4-6 h. After incubation, slides were washed with PBS three times, incubated with secondary fluorescent antibodies: sheep anti-mouse Alexa Fluor 488 (Life technologies) and donkey anti-rat Alexa Fluor 594 (Life technologies) diluted in PBS containing 5% BSA for 1 h. Slides were washed with PBS three times and mounted with Vectashield mounting medium. Image acquisition was performed on a Leica laser microscope. DNA fiber length was measured by using ImageJ software (NCl/NIH).

[2] = tested on: cleaved PARP in DLD1 cells; experiment: Western blot of cleaved PARP; format: cell-based, human; conditions: DLD1, 50 nM 5-FdU
Protocol: Western blots were performed as described in Yan et al. (Clin Cancer Res. (2007) 13:1532-39). Antibodies used were as follows: Anti-UDG (FL-313) (Santa Cruz Biotechnology), anti-Cleaved PARP (Asp214)(19F4) (Cell Signaling), and anti-α-Tubulin (Calbiochem).

[3] = tested on: cleaved PARP in HCT116 p53 WT cells; experiment: Western blot of apoptotic proteins; format: cell-based, human; conditions: shSCR and shUDG, 25 nM 5-FdU 24 h
Protocol: (§1) Western blots were performed as previously described Yan et al., Clinical Cancer Research. 2007; 13(5):1532-9. Twenty microgram of protein was loaded on SDS-polyacrylamide gel. The following antibodies were used to detect proteins on the membrane: α-Tubulin (Calbiochem); GAPDH (Santa Cruz Biotechnology); UDG (FL-313) (Santa Cruz Biotechnology); cleaved PARP (Asp214)(19F4) (Cell Signaling); cleaved caspase 3 (Cell Signaling); p53 (FL-393) (Santa Cruz Biotechnology); and p21 (Santa Cruz Biotechnology). For quantitative RT-PCR, total RNA from cells was extracted by using RNeasy Plus Mini Kit (Qiagen). cDNA synthesis was performed by using SuperScript III First Strand Kit (Life Technologies).

[4] = tested on: cleaved PARP or activated caspase 3 in HCT116 p53 KO cells; experiment: Western blot of apoptotic proteins; format: cell-based, human
Protocol: as §1

HCT116 p53 WT cells = conditions: HCT116 p53 WT, shUDG vs shSCR
Excerpt: p53 or UDG knockdown was achieved via shRNA transduction. Lentiviral vectors LV-THM-shp53 (which also expresses a GFP reporter) or LV-Bleo-shp53 to perform p53 KD in WT HCT116 cells were obtained from Case Western Reserve University, Cleveland, Ohio Lentiviral vector targeting GFP (sh-GFP) was used as control. UDG shRNA vectors (shUDG: NM_003362.2-656s21c1, shUDG-2: NM_003362.2-758s21c1, and shUDG-3: NM_003362.2-893s21c1) were purchased from Sigma, and a scramble targeting shRNA vector (Sigma) was used as paired control. The lentiviral production and infection were performed as previously described. Cells stably infected with LV-THM-p53 were isolated by cell sorting on the basis of their GFP expression.
Cancer cells (200-300 cells/well) were seeded in 6-well culture dishes and allowed to adhere overnight. For 5-FdU, cells were treated for 24 h, then gently washed with PBS, and incubated with fresh media for at least 10 days to allow individual colonies to form. […] After 10-18 days, the plates were stained with methylene blue. Colonies containing ≥50 cells were counted. The percentage of survival was determined relative to untreated control averaged over 3 independent experiments.

Compound: O=c1[nH]c(=O)n([C@H]2C[C@H](O)[C@@H](CO)O2)cc1F [5-FdU, 5-fluorodeoxyuridine]
- cell survival in shSCR-transfected cells ([1]; HEC1A shSCR, high concentrations): moderate loss of cell viability
- effect of UDG depletion on drug sensitivity ([1]; HEC1A shUDG vs shSCR): highly sensitized
- mean fiber length of nascent DNA strands (DLD1 cells; UDG depleted cells): 2.8 μm
- reduction of mean fiber length (DLD1 cells; UDG depleted cells): 63%
- mean fiber length of nascent DNA strands (DLD1 cells; shSCR-transfected cells): 5.7 μm
- reduction of mean fiber length (DLD1 cells; shSCR-transfected cells): 23%
- time of 5-FdU treatment until appearance of cleaved PARP [2]: > 24 h
- expression of cleaved PARP [3]: induced at 48 h
- induction of cleaved PARP or activated caspase 3 ([4]; p53 KO cells depleted of UDG, 48 h to 96 h): robustly induced
- induction of cleaved PARP or activated caspase 3 ([4]; p53 KO cells expressing UDG, 25 nM 5-FdU 24 h): not detected
- effect of UDG depletion on cytotoxicity (HCT116 p53 WT cells): did not significantly affect
- resistance compared with p53 WT cells (HCT116 p53 KO cells; HCT116 p53 KO vs p53 WT): more resistant
- effect of UDG depletion on cytotoxicity (HCT116 p53 KO cells; HCT116 p53 KO, shUDG vs shSCR): greatly enhanced cytotoxicity
